Measured values as given in ChEMBL document CHEMBL1201862, “PubChem BioAssay data set” (2004).
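Where inhibition never reached the appropriate level, the endpoint shown equals the highest concentration tested. Otherwise, values were interpolated linearly from a five-concentration, 48-hour dose response in 96-well plates. GI50 is the concentration that inhibits growth by half.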 Activity calls are given as the source filed them. Rule as the data show it: active = GI50 up to about 1.1 µM and inactive = higher.

What was measured:
Test in all cases: growth of human tumour cells (NCI), 48 h
[1] = test system: OVCAR-3
[2] = test system: SK-OV-3
[3] = test system: NCI-H226
[4] = test system: RXF 393
[5] = test system: HL-60
[6] = test system: U-251
[7] = test system: A549
[8] = test system: HCC 2998
[9] = test system: COLO 205
[10] = test system: BT-549
[11] = test system: NCI-H23
[12] = test system: HOP-92
[13] = test system: M14
[14] = test system: 786-0
[15] = test system: UO-31
[16] = test system: NCI-H460
[17] = test system: SF-539
[18] = test system: TK-10
[19] = test system: MDA-MB-435
[20] = test system: UACC-62
[21] = test system: NCI/ADR-RES
[22] = test system: MOLT-4
[23] = test system: SK-MEL-5
[24] = test system: A498
[25] = test system: SF-295
[26] = test system: MDA-N
[27] = test system: EKVX
[28] = test system: HOP-62
[29] = test system: HCT-15
[30] = test system: SNB-75
[31] = test system: NCI-H522
[32] = test system: T47D
[33] = test system: RPMI-8226
[34] = test system: Malme-3M
[35] = test system: IGROV-1
[36] = test system: OVCAR-4
[37] = test system: PC-3
[38] = test system: SNB-19
[39] = test system: HT-29
[40] = test system: CCRF-CEM
[41] = test system: SR
[42] = test system: CAKI-1
[43] = test system: KM12
[44] = test system: DU-145
[45] = test system: SW-620
[46] = test system: SF-268
[47] = test system: MCF7
[48] = test system: K562
[49] = test system: SN12C
[50] = test system: HCT-116
[51] = test system: UACC-257
[52] = test system: SK-MEL-28
[53] = test system: ACHN
[54] = test system: OVCAR-8
[55] = test system: LOX IMVI
[56] = test system: MDA-MB-231
[57] = test system: Hs-578T
[58] = test system: SK-MEL-2
[59] = test system: OVCAR-5

Measured: GI50

O=C1Nc2ccccc2/C1=N/NS(=O)(=O)c1ccc(C(=O)O)cc1
inactive: [1] > 100 µM | [2] > 100 µM | [3] > 100 µM | [4] > 100 µM | [5] > 100 µM | [6] > 100 µM | [7] > 100 µM | [8] > 100 µM | [9] > 100 µM | [10] > 100 µM | [11] > 100 µM | [12] > 100 µM | [13] > 100 µM | [14] > 100 µM | [15] > 100 µM | [16] > 100 µM | [17] > 100 µM | [18] > 100 µM | [19] > 100 µM | [20] > 100 µM | [21] > 100 µM | [22] > 100 µM | [23] > 100 µM | [24] > 100 µM | [25] > 100 µM | [26] > 100 µM | [27] 74.5 µM | [28] > 100 µM | [30] > 100 µM | [31] > 100 µM | [32] > 100 µM | [33] > 100 µM | [34] > 100 µM | [35] > 100 µM | [36] > 100 µM | [37] > 100 µM | [38] > 100 µM | [39] > 100 µM | [40] > 100 µM | [41] > 100 µM | [42] > 100 µM | [43] > 100 µM | [44] > 100 µM | [45] > 100 µM | [46] > 100 µM | [47] > 100 µM | [48] > 100 µM | [49] > 100 µM | [50] > 100 µM | [51] > 100 µM | [52] > 100 µM | [53] > 100 µM | [54] > 100 µM | [55] > 100 µM | [56] > 100 µM | [57] > 100 µM | [58] > 100 µM | [59] > 100 µM
> 100 µM: [29]

O=C(OCC1OC(n2nc(Cn3nnc(-c4cccnc4)n3)n(-c3cccc4ccccc34)c2=S)C(OC(=O)c2ccccc2)C1OC(=O)c1ccccc1)c1ccccc1 (stereo not drawn)
> 100 µM: [29]
inactive: [1] > 100 µM | [2] > 100 µM | [3] > 100 µM | [4] > 100 µM | [5] > 100 µM | [6] > 100 µM | [7] > 100 µM | [8] > 100 µM | [9] > 100 µM | [10] > 100 µM | [11] > 100 µM | [12] > 100 µM | [13] 35.3 µM | [14] > 100 µM | [15] > 100 µM | [16] > 100 µM | [17] > 100 µM | [18] > 100 µM | [19] > 100 µM | [20] > 100 µM | [21] > 100 µM | [22] > 100 µM | [23] > 100 µM | [24] > 100 µM | [25] > 100 µM | [26] > 100 µM | [27] > 100 µM | [28] > 100 µM | [30] 2.55 µM | [31] > 100 µM | [32] > 100 µM | [33] > 100 µM | [34] > 100 µM | [35] > 100 µM | [36] > 100 µM | [37] > 100 µM | [38] > 100 µM | [39] > 100 µM | [40] > 100 µM | [41] > 100 µM | [42] > 100 µM | [43] > 100 µM | [44] > 100 µM | [45] > 100 µM | [46] > 100 µM | [47] > 100 µM | [48] > 100 µM | [49] > 100 µM | [50] > 100 µM | [51] > 100 µM | [52] > 100 µM | [53] > 100 µM | [54] > 100 µM | [55] > 100 µM | [56] 53.8 µM | [57] > 100 µM | [58] > 100 µM | [59] 65.9 µM
